Measurements from patent US12514928B2, “Herboxidiene antibody-drug conjugates and methods of use” (Eisai R&D Management Co., Ltd., priority 2018, dated 2026).
Like-named read-outs stand apart in the source and are kept apart here.

Experiments:
[1] = test system: HCC1954 breast cancer cells; assay: Payload cell viability dose response (CellTiter-Glo 2.0), HCC1954 (Example 4); assay type: cell-based, human; details: for GI50: Homo sapiens
Description: (§1) Cell viability dose response was determined for exemplary payload compounds in HER2-amplified HCC1954 breast cancer cells and NCI-N87 gastric cancer cells.
(§2) HCC1954 (American Type Culture Collection (ATCC)) breast ductal carcinoma or NCI-N87 (ATCC) gastric carcinoma cells were plated at 500 cells/well in flat bottom 384-well tissue culture plates (Corning) in a total volume of 30 μL tissue culture medium supplemented with 10% fetal bovine serum (ThermoFisher Scientific). Cells were treated with a 4-fold serial dilution of compound from 10000 nM to 0.01 nM. Each concentration was tested in triplicate. At the time of treatment, a plate of untreated cells was evaluated using CellTiter-Glo® 2.0 Luminescent Cell Viability Assay according to the manufacturer's recommendations (Promega; #G9241). CellTiter-Glo® 2.0 reagent was added to the medium, incubated, and assayed on an EnVision Multilabel Reader (PerkinElmer). Values represent time zero (T0). The number of viable cells following 72 (T72) or 144 hours (T144) of compound treatment was also determined using the CellTiter-Glo®2.0 Luminescent Cell Viability Assay. Using the luminescence value at time zero (T0), DMSO control growth (C), and test growth in the presence of compound (T72 or T144), the percentage growth was calculated at each of the compound concentrations levels. Percentage growth inhibition was calculated as (e.g.): [(T144−T0)/(C−T0)]×100 for concentrations for which T144>/=T0 or [(T144−T0)/T0]×100 for concentrations for which T144<T0. The dose response curve plots were generated using Prism 8 (Graphpad) and fit using nonlinear regression analysis and the log(inhibitor) versus response-variable slope (four parameters).

[2] = test system: NCI-N87 gastric cancer cells; assay: Payload cell viability dose response (CellTiter-Glo 2.0), NCI-N87 (Example 4); assay type: cell-based, human; details: for GI50: Homo sapiens
Description: as §1, §2

[3] = test system: SLC25A19 mature transcript; assay: In-cell splicing PD assay, HCC1954; assay type: cell-based; details: Homo sapiens, HCC1954, 6 h
Description: (§3) 4.1.2 In-Cell Splicing PD Assay
(§4) Splicing of the SLC25A19 mature transcript was also examined in HCC1954 and NCI-N87 cells treated with increasing concentrations of exemplary payload compounds.
(§5) HCC1954 or NCI-N87 cells (ATCC) were plated in RPM1+10% FBS media (ATCC) at 1000 cells per well at 20 μL per well. Cells were treated with compounds in a 4-fold dilution dose-response. After 6 hours, cells were PBS washed and lysed with 30 μL of CL buffer (IgePal CA-630, 5M NaCl, 1M Tris HCl 1M pH 7.4 in water) containing 25 μL/mL of RNAsin (Promega) and incubated for 20 min at RT on a rocker. Resulting mixture (1 μL) was used to assess splicing modulation in a Taqman Fast Virus 1-Step MasterMix (Applied Biosystems) reverse transcription PCR reaction with the following Taqman primers according to the manufacturer's recommendations: SLC25A19 (Invitrogen, Hs00222265_m1); RPLPO (Invitrogen, Hs99999902_m1).

[4] = test system: SLC25A19 mature transcript; assay: In-cell splicing PD assay, NCI-N87; assay type: cell-based; details: Homo sapiens, NCI-N87, 6 h
Description: as §3, §4, §5

[5] = HCC1954, 72 h, read-out: CTG 72 h GI50
[6] = HCC1954, 144 h, read-out: CTG 144 h GI50
[7] = NCI-N87, 72 h, read-out: CTG 72 h GI50
[8] = NCI-N87, 144 h, read-out: CTG 144 h GI50

Structure (SMILES) | CTG 72 h LD50 ([1]; HCC1954, 72 h) [µM] | CTG 72 h Rmin ([1]; HCC1954, 72 h) [%] | CTG 144 h LD50 ([1]; HCC1954, 144 h) [nM] | CTG 144 h Rm in ([1]; HCC1954, 144 h) [%] | GI50 [1, 5] [nM] | GI50 [1, 6] [nM] | GI50 [2, 7] [nM] | GI50 [2, 8] [nM] | CTG 72 h LD50 ([2]; NCI-N87, 72 h) [µM] | CTG 72 h Rmin ([2]; NCI-N87, 72 h) [%] | CTG 144 h LD50 ([2]; NCI-N87, 144 h) [nM] | CTG 144 h Rmin ([2]; NCI-N87, 144 h) [%] | IC50 [3] [nM] | IC50 [4] [nM]
COC(=O)[C@@H](CCCCNC(=O)C[C@H]1CC[C@H](C)[C@@H](/C(C)=C/C=C/[C@@H](C)C[C@@]2(C)O[C@@H]2[C@H](C)[C@@H](OC)[C@@H](C)O)O1)NC(=O)N1CCN(C)CC1 [Compound H20] | > 10 | −44.802 | 98.861 | −94.301 | 40.4 | 36.4 | 29.4 | 21 | > 10 | −62.676 | 532.734 | −94.539 | 51.4 | 56.2
COC(=O)[C@@H](CCCCNC(=O)N1CCN(C)CC1)NC(=O)C[C@H]1CC[C@H](C)[C@@H](/C(C)=C/C=C/[C@@H](C)C[C@@]2(C)O[C@@H]2[C@H](C)[C@@H](OC)[C@@H](C)O)O1 [Compound H21] | > 10 | −54.164 | 127.893 | −97.761 | 81.4 | 50 | 35.5 | 40.9 | > 10 | −7.791 | 654.736 | −86.347 | 157 | 87.5
CO[C@H]([C@@H](C)[C@H]1O[C@]1(C)C[C@H](C)/C=C/C=C(\C)[C@H]1O[C@@H](CC(=O)N[C@@H](CCNC(=O)N2CCN(C)CC2)C(=O)O)CC[C@@H]1C)[C@@H](C)O [Compound H15] | > 10 | −44.191 | 31.77 | −95.522 | 18.1 | 11.7 | 6 | 3.5 | > 10 | −18.031 | 106.186 | −82.661 | 37.1 | 15.4
CO[C@H]([C@@H](C)[C@H]1O[C@]1(C)C[C@H](C)/C=C/C=C(\C)[C@H]1O[C@@H](CC(=O)N[C@@H](COC(=O)N2CCN(C)CC2)C(=O)O)CC[C@@H]1C)[C@@H](C)O [Compound H13] | > 10 | −54.164 | 690.614 | −97.151 | 190 | 210 | 53.9 | 115 | > 10 | −15.164 | 2784.969 | −80.613 | 320 | 108
CO[C@H]([C@@H](C)[C@H]1O[C@]1(C)C[C@H](C)/C=C/C=C(\C)[C@H]1O[C@@H](CC(=O)N[C@@H](CCCOC(=O)N2CCN(C)CC2)C(=O)O)CC[C@@H]1C)[C@@H](C)O [Compound H17] | > 10 | −48.872 | 275.218 | −96.54 | 139 | 126 | 47 | 81.3 | > 10 | −15.164 | 912.895 | −65.458 | 135 | 114
CO[C@H]([C@@H](C)[C@H]1O[C@]1(C)C[C@H](C)/C=C/C=C(\C)[C@H]1O[C@@H](CNC(=O)[C@H]2CC[C@H](COC(=O)N3CCN(C)CC3)CC2)CC[C@@H]1C)[C@@H](C)O [Compound H22] | > 10 | 82.229 | > 10000 | 71.431 | > 10000 | > 10000 | > 10000 | 5100 | > 10 | 48.181 | > 10000 | 29.113 | > 10000 | > 10000
CO[C@H]([C@@H](C)[C@H]1O[C@]1(C)C[C@H](C)/C=C/C=C(\C)[C@H]1O[C@@H](CC(=O)N[C@H](CCCOC(=O)N2CCN(C)CC2)C(=O)O)CC[C@@H]1C)[C@@H](C)O [Compound H18] | > 10 | −20.785 | 1606.048 | −88.195 | 624 | 436 | 300 | 313 | > 10 | −12.297 | 3937.618 | −60.543 | 1680 | 464
COC(=O)[C@H](CCNC(=O)N1CCN(C)CC1)NC(=O)C[C@H]1CC[C@H](C)[C@@H](/C(C)=C/C=C/[C@@H](C)C[C@@]2(C)O[C@@H]2[C@H](C)[C@@H](OC)[C@@H](C)O)O1 [Compound H16] | > 10 | −65.968 | 22.316 | −98.779 | 11.8 | 8.98 | 6.76 | 3.62 | > 10 | −21.717 | 98.186 | −86.757 | 16.7 | 8.55
